Literature values in article PMC4494773, “Design, synthesis, antiviral and cytotoxic evaluation of novel acyclic phosphonate nucleotide analogues with a 5,6-dihydro-1H-[1,2,3]triazolo[4,5-d]pyridazine-4,7-dione system” (Monatshefte Fur Chemie, 2014).

Tests used:
[1] = system: viral helicase from West Nile Virus (WNV); parameters: method as in PMID 11959550
viral helicase from HCV = system: viral helicase from HCV; parameters: method as in PMID 11959550
HIV-1 = system: HIV-1; parameters: method as in PMID 12901908

| Compound | antiviral activity by inhibition of a viral helicase [1] | antiviral activity by inhibition of a viral helicase (viral helicase from HCV) | antiviral activity against HIV-1 (HIV-1) |
| --- | --- | --- | --- |
| O=c1[nH][nH]c(=O)c2c1ncn2C1OC(CO)C(O)C1O (stereo not drawn) [compound 5] | exhibited antiviral activity by inhibition of a viral helicase | exhibited antiviral activity by inhibition of a viral helicase | – |
| NC(=O)c1cn(C2CC(CCP(=O)(O)O)CC2O)nn1 (stereo not drawn) [compound 2] | – | – | displayed antiviral activity |
| COC1C(O)C(CO)OC1n1cnc2c(=O)[nH][nH]c(=O)c21 (stereo not drawn) [compound 6] | exhibited antiviral activity by inhibition of a viral helicase | exhibited antiviral activity by inhibition of a viral helicase | – |
| NC(=O)c1nnn(C2CC(CO)CC2O)c1N (stereo not drawn) [compound 1] | – | – | displayed antiviral activity |
